From PubChem BioAssay AID1963860 (Molecular Pharmacology Branch, DTP, NCI, 2024)

Test system: CN0375-F725-PDC KRAS spheroid viability
Experiment: Anticancer human tumor CN0375-F725-PDC patient-derived colon carcinoma cell line growth inhibition [KRAS2]
Details: spheroids with HUVEC and MSC; for IC50: curve of first compound; for viability, T/C: stronger effect = lower value
Summary of the method: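 Combination screen of spheroid viability in tumor-cell co-cultures with endothelial (HUVEC) and mesenchymal stem cell stroma. Each agent was tested in half-log dilutions, topping at clinical Cmax or at 10 microM without a known Cmax.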

[1] = second compound 0.1 µM, first compound 0.0316 µM
[2] = second compound 0.1 µM, first compound 0.1 µM
[3] = second compound 0.1 µM, first compound 0.316 µM
[4] = second compound 0.1 µM, first compound 1 µM
[5] = second compound 0.1 µM, first compound 3.16 µM
[6] = second compound 0.1 µM, first compound 10 µM
[7] = second compound 0.316 µM, first compound 0.0316 µM
[8] = second compound 0.316 µM, first compound 0.1 µM
[9] = second compound 0.316 µM, first compound 0.316 µM
[10] = second compound 0.316 µM, first compound 1 µM
[11] = second compound 0.316 µM, first compound 3.16 µM
[12] = second compound 0.316 µM, first compound 10 µM
[13] = second compound 1 µM, first compound 0.0316 µM
[14] = second compound 1 µM, first compound 0.1 µM
[15] = second compound 1 µM, first compound 0.316 µM
[16] = second compound 1 µM, first compound 1 µM
[17] = second compound 1 µM, first compound 3.16 µM
[18] = second compound 1 µM, first compound 10 µM
[19] = second compound 3.16 µM, first compound 0.0316 µM
[20] = second compound 3.16 µM, first compound 0.1 µM
[21] = second compound 3.16 µM, first compound 0.316 µM
[22] = second compound 3.16 µM, first compound 1 µM
[23] = second compound 3.16 µM, first compound 3.16 µM
[24] = second compound 3.16 µM, first compound 10 µM
[25] = second compound 10 µM, first compound 0.0316 µM
[26] = second compound 10 µM, first compound 0.1 µM
[27] = second compound 10 µM, first compound 0.316 µM
[28] = second compound 10 µM, first compound 1 µM
[29] = second compound 10 µM, first compound 3.16 µM
[30] = second compound 10 µM, first compound 10 µM
[31] = second compound 0.1 µM, first compound 0.01 µM
[32] = second compound 0.316 µM, first compound 0.01 µM
[33] = second compound 1 µM, first compound 0.01 µM
[34] = second compound 3.16 µM, first compound 0.01 µM
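Also: spheroids exposed to agents for 7 days.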

| Structure (SMILES) | IC50 (second compound 0.1 µM) [µM] | IC50 (second compound 0.316 µM) [µM] | IC50 (second compound 1 µM) [µM] | IC50 (second compound 3.16 µM) [µM] | viability, T/C [1] [%] | viability, T/C [2] [%] | viability, T/C [3] [%] | viability, T/C [4] [%] | viability, T/C [5] [%] | viability, T/C [7] [%] | viability, T/C [8] [%] | viability, T/C [9] [%] | viability, T/C [10] [%] | viability, T/C [11] [%] | viability, T/C [13] [%] | viability, T/C [14] [%] | viability, T/C [15] [%] | viability, T/C [16] [%] | viability, T/C [17] [%] | viability, T/C [19] [%] | also measured |
| --- | --- | --- | --- | --- | --- | --- | --- | --- | --- | --- | --- | --- | --- | --- | --- | --- | --- | --- | --- | --- | --- |
| COc1cc2nccc(Oc3ccc(NC(=O)C4(C(=O)Nc5ccc(F)cc5)CC4)cc3)c2cc1OC + CNCc1ccccc1-c1csc(C(C)Nc2nc(C)nc3cc(OC)c(OC)cc23)c1 | 3.04 | 1.23 | < 0.0316 | < 0.0316 | 98.2 | 94.4 | 85.6 | 76.3 | 44.4 | 93 | 97.6 | 72.7 | 60.5 | 23 | 45.5 | 42.6 | 19.5 | 20.6 | 2.02 | 0.22 | IC50 (second compound 10 µM): < 0.0316 µM; viability, T/C [6]: 53.7%; viability, T/C [12]: 11.3%; viability, T/C [18]: 1.05%; viability, T/C [20]: 0.26%; viability, T/C [21]: 0.27%; viability, T/C [22]: 0.15%; viability, T/C [23]: 0.15%; viability, T/C [24]: 0.11%; viability, T/C [25]: 0.14%; viability, T/C [26]: 0.13%; viability, T/C [27]: 0.14%; viability, T/C [28]: 0.12%; viability, T/C [29]: 0.1%; viability, T/C [30]: 0.16% |
| CC(=O)OC12COC1CC(O)C1(C)C(=O)C(O)C3=C(C)C(OC(=O)C(O)C(NC(=O)OC(C)(C)C)c4ccccc4)CC(O)(C(OC(=O)c4ccccc4)C21)C3(C)C (stereo not given) + C=CC(=O)N1CCN(c2nc(OCC3CCCN3C)nc3c2CCN(c2cccc4cccc(C)c24)C3)CC1CC#N | > 3.16 | > 3.16 | > 3.16 | > 3.16 | 102 | 86.3 | 87 | 79.5 | 76.4 | 100 | 87.3 | 85.2 | 79.3 | 75.9 | 91.8 | 91.6 | 78.8 | 78.6 | 73.6 | 98.9 | IC50 (second compound 0.0316 µM): > 3.16 µM; viability, T/C (second compound 0.0316 µM, first compound 0.01 µM): 99.3%; viability, T/C (second compound 0.0316 µM, first compound 0.0316 µM): 99.2%; viability, T/C (second compound 0.0316 µM, first compound 0.1 µM): 87.2%; viability, T/C (second compound 0.0316 µM, first compound 0.316 µM): 82.5%; viability, T/C (second compound 0.0316 µM, first compound 1 µM): 81.8%; viability, T/C (second compound 0.0316 µM, first compound 3.16 µM): 79.2%; viability, T/C [31]: 104%; viability, T/C [32]: 100%; viability, T/C [33]: 96.7%; viability, T/C [34]: 96.2%; viability, T/C [20]: 93.7%; viability, T/C [21]: 83.5%; viability, T/C [22]: 88.3%; viability, T/C [23]: 79% |
| COC(=O)c1ccc2c(C(=Nc3ccc(N(C)C(=O)CN4CCN(C)CC4)cc3)c3ccccc3)c(O)[nH]c2c1 + CC1OCC2(CCN(c3cnc(Sc4ccnc(N)c4Cl)c(N)n3)CC2)C1N | 2.34 | 2.18 | 2.25 | 2.01 | 104 | 103 | 89.3 | 85.9 | 37.4 | 102 | 91 | 84.8 | 81.3 | 35.4 | 79.2 | 84.6 | 93.5 | 75.3 | 38.8 | 76 | IC50 (second compound 10 µM): 1.27 µM; viability, T/C [6]: 0.19%; viability, T/C [12]: 0.2%; viability, T/C [18]: 0.16%; viability, T/C [20]: 82.4%; viability, T/C [21]: 83.2%; viability, T/C [22]: 69.2%; viability, T/C [23]: 36.9%; viability, T/C [24]: 0.37%; viability, T/C [25]: 66%; viability, T/C [26]: 73.2%; viability, T/C [27]: 68.5%; viability, T/C [28]: 60.3%; viability, T/C [29]: 11.7%; viability, T/C [30]: 1.38% |
| CC1COCCN1c1cc(-c2ccnn2C)c2ccnc(-c3ccn[nH]3)c2n1 (stereo not given) + COc1cc2nc(C)nc(NC(C)c3cc(N)cc(C(F)(F)F)c3)c2cc1OC1CCOC1 | > 3.16 | > 3.16 | > 3.16 | 2.72 | 95 | 86.5 | 78.3 | 71.1 | 54.1 | 91.4 | 76 | 74.8 | 67.9 | 50.8 | 96.1 | 78 | 71.8 | 65.6 | 49.5 | 88.2 | IC50 (second compound 10 µM): < 0.01 µM; viability, T/C [31]: 101%; viability, T/C [32]: 98.7%; viability, T/C [33]: 101%; viability, T/C [34]: 87.5%; viability, T/C [20]: 71.7%; viability, T/C [21]: 65.3%; viability, T/C [22]: 58.1%; viability, T/C [23]: 48.1%; viability, T/C (second compound 10 µM, first compound 0.01 µM): 15%; viability, T/C [25]: 19.3%; viability, T/C [26]: 17.1%; viability, T/C [27]: 13.9%; viability, T/C [28]: 18.1%; viability, T/C [29]: 9.84% |
